Experimental data taken from patent US8263642B2, “Antimicrobial compounds and methods of use thereof” (Vanderbilt University, priority 2008, dated 2012).

Key:
[1] = system: HssRS-dependent hrtAB expression; assay: Luminescence-based assay to monitor HssRS-dependent hrtAB expression (phrtABlux reporter), Newman; type: cell-based, Staphylococcus aureus; settings: Newman; for Luminescence: raw luminescence value obtained in a luminometer; for activation at 0.0825 µM: Staphylococcus aureus, NEWMAN, read-out: % Lumi, luminescence induced by the compound compared to the heme control (82.5 nM) in the same plate
Procedure, shortened: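 S. aureus Newman wild type or ΔhssR carrying a hrtAB promoter–luxCDABE reporter (phrtABlux), grown in TSB with 10 μg/ml chloramphenicol at 37 °C. Light output read against 82.5 nM heme as the in-plate positive control. Activity given as % of heme-induced luminescence.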

[2] = system: S. aureus heme toxicity adaptation; assay: Heme adaptation (resistance to heme-mediated toxicity), Newman; type: cell-based, Staphylococcus aureus; settings: whether compound induces heme adaptation
Experimental: With reference to Table 1, “Luminescence” refers to the raw luminescence value obtained in a luminomter. “Control (82.5 nm)” refers to the luminescence value obtained from heme at 82.5 nM as a positive control in the same plate as the experimental. “% lum” is the percentage of luminescence induced by the compound as compared to the heme control in the same plate. […] All of these assays are described in the application. […] “N/T” indicates the test was not performed.
This secondary counter screen can involve testing the compounds of interest for their ability to increase the resistance of wildtype S. aureus to heme-mediated toxicity. Upon sensing heme, HssRS increases the expression of hrtAB, in turn increasing the resistance of S. aureus to heme mediated toxicity. By extension, additional molecules recognized by HssRS leading to hrtAB activation can result in a similar increase in resistance to heme mediated toxicity. For this assay, bacteria can be grown for 15 hours in the presence of compounds of interest (using concentrations determined in the XylE assay), followed by subculture into TSB containing 10 μM heme. Compounds that increase the resistance of S. aureus to heme-mediated toxicity can be selected for further studies. S. aureus strains unable to adapt to heme mediated toxicity (ΔhssR) can be included as a negative control. As a positive control, wildtype S. aureus can be exposed to subinhibitory concentrations of heme prior to subculture. The inclusion of this secondary counterscreen can, in some aspects, rule out compounds that non-specifically increase the expression of the XylE and Lux-based reporter genes.
S. aureus cultures were grown overnight (O/N ˜15 hrs) at 37° C. with shaking at 180 RPM in tryptic soy broth (TSB). Cultures were diluted 1:75 and inoculated into roundbottom 96-well plates in a final volume of 150 μl. Cultures were grown at 37° C. with aeration and bacterial growth was monitored by the increase in absorbance (O.D.600) over time. For the hemin adaptation assays, the medium was supplemented with different hemin concentrations prior to bacterial inoculation. The results represent the mean±S.D. from triplicate determinations and the asterisks denote statistically significant differences as determined by Student's t test (p<0.05).

SMILES	Luminescence [1]	Heme Adapt [2]	activation at 0.0825 µM [1] [%]
Cc1ccc(NS(=O)(=O)c2ccc3c(c2)Cc2cc(S(=O)(=O)Nc4ccc(C)cc4)ccc2-3)cc1 [drawing 74]	7328	+	–
COc1ccc(-c2cc(-c3ccc(OC)cc3O)n[nH]2)cc1	1482	+	238
O=C(N/N=C/c1ccc(-c2cccc(C(F)(F)F)c2)o1)C1COc2ccccc2O1 (stereo not drawn) [drawing 49]	558	+	152
CC(NC(=O)C1(c2ccccc2)CCCC1)C1COc2ccccc2O1 (stereo not drawn) [drawing 45]	757	+	–
COc1ccccc1NC1=C/C(=N\S(=O)(=O)c2ccc(Br)cc2)c2ccccc2C1=O [drawing 81]	2270	+	510
Fc1ccc(CNC(=S)Nc2ccc(Oc3ccccc3)cc2)cc1	1570	+	362
CC(C)(C)c1ccc(O)c(NC(=S)NC(=O)c2cc3ccccc3o2)c1	419	+	101
Oc1c(-c2cc(-c3ccco3)[nH]n2)ccc2ccccc12 [drawing 65]	2622	+	630
COc1ccc(Br)cc1C(=O)NC(=S)Nc1cc(C)c(C)cc1O [drawing 63]	946	+	–
COc1ccc(C(=O)Nc2sc(-c3ccccc3)cc2C(N)=O)cc1	1781	+	244
COc1ccc(-c2cc(-c3ccc(C)cc3)[nH]n2)c(O)c1	1122	+	180
O=C(N/N=C/c1ccc(-c2ccc(Br)cc2)o1)C1COc2ccccc2O1 (stereo not drawn) [drawing 48]	485	+	133
CC(NC(=O)C1(c2ccccc2)CCCC1)C1COc2ccccc2O1 (stereo not drawn) [drawing 26]	757	+	266
Cc1cccc(C(=O)Nc2ccc(-c3nc4ccccc4o3)cc2)c1 [drawing 43]	837	+	–
Oc1c(-c2cc(-c3ccco3)[nH]n2)ccc2ccccc12 [drawing 25]	2622	+	–
CCCN1C(=O)/C(=C2/C(=O)N(CC(=O)Nc3ccc(Cl)cc3)c3ccccc32)SC1=S [drawing 67]	98	+	–
Cc1ccc(O)c(NC(=O)c2nn3c(c2Br)NC(c2ccco2)CC3C(F)(F)F)c1 (stereo not drawn) [drawing 29]	1949	+	307
